Measurements published in patent publication US20260193268A1, “TRICYCLIC PI3Ka INHIBITOR, PREPARATION METHOD THEREFOR, AND PHARMACEUTICAL USE THEREOF” (WIGEN BIOMEDICINE TECHNOLOGY (SHANGHAI) CO., LTD., priority 2022, published 2026).
Read-outs that look alike come from different tables or passages of the source.

Key:
[1] = tested on: HCC1954 cells (with PI3Kα H1047R mutation); experiment: In vitro inhibition of HCC1954 cell proliferation (CellTiter-Lumi); type: cell-based; conditions: Homo sapiens, HCC1954, 144 h
Procedure: Assay for In Vitro Inhibition of HCC1954 Cell Proliferation by Compounds of the Present Disclosure
The growth of the cells was evaluated, and the IC50 for the inhibition of cell growth by the compounds was calculated.

[2] = tested on: MCF-7 cells (with PI3Kα E545K mutation); experiment: In vitro inhibition of MCF-7 cell proliferation (CellTiter-Lumi); type: cell-based; conditions: Homo sapiens, MCF7, 144 h
Method in brief: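 MCF-7 (PI3Kα E545K) seeded at 2000 cells/well; serially diluted compounds added next day and exposed for 144 h. Cellular ATP read by CellTiter-Lumi luminescence; IC50 for growth inhibition calculated.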

[3] = HCC1954 cells, 144 h, CellTiter-Lumi, numeric values, read-out: Inhibitory activity against HCC1954 cells (IC50)
[4] = numeric values, read-out: Inhibitory activity against MCF-7 cells (IC50)
[5] = HCC1954 cells, 144 h, CellTiter-Lumi, class symbols, read-out: Inhibitory activity against HCC1954 cells (IC50), class symbols
[6] = class symbols, read-out: Inhibitory activity against MCF-7 cells (IC50), class symbols
[7] = read-out: Inhibitory activity against HCC1954 cells (IC50), class symbols

Row | Structure (SMILES) | IC50 [1, 3] | IC50 [2, 4] | IC50 [1, 5] | IC50 [2, 6] | IC50 [1, 7]
1 | CNCC#CC(=O)Nc1ccc(N2CC(N3CCN(c4ccc5c(c4)-c4nc(N6C(=O)OC[C@H]6C(F)F)cn4CCO5)CC3)C2)cc1 [Compound 185] | – | – | < 50 nM | < 50 nM | –
2 | CCOP(=O)(OCC)OC(C)(C)C=C(C#N)C(=O)Nc1ccc(N2CC(N3CCN(c4ccc5c(c4)-c4nc(N6C(=O)OC[C@H]6C(F)F)cn4CCO5)CC3)C2)cc1 [Compound 342] | – | – | – | < 50 nM | < 50 nM
3 | CC(C)(C=C(C#N)C(=O)Nc1cnc(N2CC(N3CCN(c4ccc5c(c4)-c4nc(N6C(=O)OC[C@H]6C(F)F)cn4CCO5)CC3)C2)nc1)N1CCC1 [Compound 265] | – | – | < 50 nM | < 50 nM | –
4 | CC1(C=C(C#N)C(=O)Nc2ccc(N3CC(N4CCN(c5ccc6c(c5)-c5nc(N7C(=O)OC[C@H]7C(F)F)cn5CCO6)CC4)C3)cc2)CCC1 [Compound 390] | – | – | < 50 nM | < 50 nM | –
5 | CC#CC(=O)Nc1ccc(N2CC(N3CCN(c4ccc5c(c4)-c4nc(N6C(=O)OC[C@H]6C(F)F)cn4CCO5)CC3)C2)c(F)c1 [Compound 149] | 115 nM | 16 nM | – | – | –
6 | CNC(C)(C)C=C(C#N)C(=O)Nc1ccc(N2CC(N3CCN(c4ccc5c(c4)-c4nc(N6C(=O)OC[C@H]6C(F)F)cn4CCO5)CC3)C2)nc1 [Compound 243] | – | – | < 50 nM | < 50 nM | –
7 | CCOP(=O)(OCC)OCNC(C)(C)C=C(C#N)C(=O)Nc1ccc(N2CC(N3CCN(c4ccc5c(c4)-c4nc(N6C(=O)OC[C@H]6C(F)F)cn4CCO5)CC3)C2)cc1 [Compound 331] | – | – | – | < 50 nM | < 50 nM
8 | C=CC(=O)Nc1ccc(N2CC(N3CCN(c4ccc5c(c4)-c4nc(N6C(=O)OC[C@H]6CF)cn4CCO5)CC3)C2)cc1 [Compound 176] | 4.9 nM | 0.2 nM | – | – | –
9 | CC(C)=CC(=O)CCCC(=O)N1CCN(Cc2ccc3c(c2)-c2nc(N4C(=O)OC[C@H]4C(F)F)cn2CCO3)CC1 [Compound 190] | – | – | 50 to 100 nM | < 50 nM | –
10 | C=CC(=O)Nc1ccc(N2CCC(CN3CCN(c4ccc5c(c4)-c4nc(N6C(=O)OC[C@H]6C(F)F)cn4CCO5)CC3)CC2)cc1 [Compound 12] | 399 nM | 49 nM | – | – | –
11 | Cc1cc2c(cc1N1CCN(C3CN(c4ccc(NC(=O)C(C#N)=CC(C)(C)C)cc4)C3)CC1)-c1nc(N3C(=O)OC[C@H]3C(F)F)cn1CCO2 [Compound 320] | – | – | < 50 nM | < 50 nM | –
12 | CC(C)(C=C(C#N)C(=O)Nc1ccc(N2CC(N3CCN(c4ccc5c(c4)-c4nc(N6C(=O)OC[C@H]6C(F)F)cn4CCO5)CC3)C2)cc1)N1CCOCC1 [Compound 138] | 109 nM | 35 nM | – | – | –
13 | C=CC(=O)N1CCc2nc(N3CC(N4CCN(c5ccc6c(c5)-c5nc(N7C(=O)OC[C@H]7C(F)F)cn5CCO6)CC4)C3)sc2C1 [Compound 154] | 54 nM | 4.9 nM | – | – | –
14 | CC(C)(C=C(C#N)C(=O)Nc1ccc(N2CC(N3CCN(c4ccc5c(c4)-c4nc(N6C(=O)OC[C@H]6C(F)F)cn4CCO5)CC3)C2)cc1)NS(C)(=O)=O [Compound 327] | – | – | < 50 nM | < 50 nM | –
15 | CC(C)(C)C=C(C#N)C(=O)Nc1ccc(N2CC(N3CCN(c4ccc5c(c4)-c4nc(N6C(=O)OC[C@H]6C(F)F)cn4CCO5)CC3)C2)c(Cl)c1 [Compound 355] | – | – | < 50 nM | < 50 nM | –
16 | CC1(C=C(C#N)C(=O)Nc2ccc(N3CC(N4CCN(c5ccc6c(c5)-c5nc(N7C(=O)OC[C@H]7C(F)F)cn5CCO6)CC4)C3)nc2)COC1 [Compound 251] | – | – | < 50 nM | < 50 nM | –

Row | Structure (SMILES) | IC50 [1, 3] | IC50 [2, 4] | IC50 [1, 5] | IC50 [2, 6] | IC50 [1, 7]
17 | C=CC(=O)Nc1cc(C)c(N2CC(N3CCN(c4ccc5c(c4)-c4nc(N6C(=O)OC[C@H]6C(F)F)cn4CCO5)CC3)C2)cn1 [Compound 140] | 6 nM | 0.3 nM | – | – | –
18 | CN(C)C/C=C/C(=O)Nc1cnc(N2CC(N3CCN(c4ccc5c(c4)-c4nc(N6C(=O)OC[C@H]6C(F)F)cn4CCO5)CC3)C2)nc1 [Compound 288] | – | – | < 50 nM | < 50 nM | –
19 | CC(C)C=C(C#N)C(=O)Nc1ccc(N2CC(N3CCN(c4ccc5c(c4)-c4nc(N6C(=O)OC[C@H]6C(F)F)cn4CCO5)CC3)C2)nc1 [Compound 244] | – | – | < 50 nM | < 50 nM | –
20 | CC(C)(C)C=C(C#N)C(=O)Nc1ccc(N2CC(N3CCN(c4ccc5c(c4)-c4nc(N6C(=O)OC[C@H]6C(F)F)cn4CCO5)CC3)C2)cc1Cl [Compound 364] | – | – | < 50 nM | < 50 nM | –
21 | CN(C1COC1)C(C)(C)C=C(C#N)C(=O)Nc1ncc(N2CC(N3CCN(c4ccc5c(c4)-c4nc(N6C(=O)OC[C@H]6C(F)F)cn4CCO5)CC3)C2)cn1 [Compound 292] | – | – | < 50 nM | < 50 nM | –
22 | CNC(C)(C)C=C(C#N)C(=O)Nc1ccc(N2CC(N3CCN(c4ccc5c(c4)-c4nc(N6C(=O)OC[C@H]6C(F)F)cn4CCO5)CC3)C2)c(F)c1 [Compound 225] | – | – | < 50 nM | < 50 nM | –
23 | C=CC(=O)Nc1ccc2c(c1)CCN2CCN1CCN(c2ccc3c(c2)-c2nc(N4C(=O)OC[C@H]4C(F)F)cn2CCO3)CC1 [Compound 205] | – | – | 50 to 100 nM | < 50 nM | –
24 | CC(C)(O)C=C(C#N)C(=O)Nc1cnc(N2CC(N3CCN(c4ccc5c(c4)-c4nc(N6C(=O)OC[C@H]6C(F)F)cn4CCO5)CC3)C2)nc1 [Compound 266] | – | – | < 50 nM | < 50 nM | –
25 | CC(C)(C=C(C#N)C(=O)Nc1ccc(N2CC(N3CCN(c4ccc5c(c4)-c4nc(N6C(=O)OC[C@H]6C(F)F)cn4CCO5)CC3)C2)nc1)N1CCOCC1 [Compound 240] | – | – | < 50 nM | < 50 nM | –
26 | CC(C)OC(=O)OCOP(=O)(OCOC(=O)OC(C)C)OCOC(C)(C)C=C(C#N)C(=O)Nc1ccc(N2CC(N3CCN(c4ccc5c(c4)-c4nc(N6C(=O)OC[C@H]6C(F)F)cn4CCO5)CC3)C2)cc1 [Compound 344] | – | – | < 50 nM | < 50 nM | –
27 | CCOP(=O)(NC(C)(C)C=C(C#N)C(=O)Nc1ccc(N2CC(N3CCN(c4ccc5c(c4)-c4nc(N6C(=O)OC[C@H]6C(F)F)cn4CCO5)CC3)C2)cc1)OCC [Compound 332] | – | – | – | < 50 nM | < 50 nM
28 | CN(C)C/C=C/C(=O)Nc1ncc(N2CC(N3CCN(c4ccc5c(c4)-c4nc(N6C(=O)OC[C@H]6C(F)F)cn4CCO5)CC3)C2)cn1 [Compound 286] | – | – | < 50 nM | < 50 nM | –
29 | CC(C)(C=C(C#N)C(=O)Nc1cnc(N2CC(N3CCN(c4ccc5c(c4)-c4nc(N6C(=O)OC[C@H]6C(F)F)cn4CCO5)CC3)C2)nc1)N1CC2(COC2)C1 [Compound 264] | – | – | < 50 nM | < 50 nM | –
30 | CC(C)(C=C(C#N)C(=O)Nc1ccc(N2CC(N3CCN(c4ccc5c(c4)-c4nc(N6C(=O)OC[C@H]6C(F)F)cn4CCO5)CC3)C2)cc1)NC1(C)COC1 [Compound 380] | – | – | < 50 nM | < 50 nM | –
31 | CC(C)(C=C(C#N)C(=O)Nc1cnc(N2CC(N3CCN(c4ccc5c(c4)-c4nc(N6C(=O)OC[C@H]6C(F)F)cn4CCO5)CC3)C2)nc1)N1CCOCC1 [Compound 258] | – | – | < 50 nM | < 50 nM | –

Further lines, with some results ahead:

Row | IC50 [1, 3] | IC50 [2, 4] | IC50 [1, 5] | IC50 [2, 6] | Structure (SMILES) | IC50 [1, 7]
32 | 318 nM | 37 nM | – | – | C=CC(=O)N1CC(N2CC[C@@H](CN3CCN(c4ccc5c(c4)-c4nc(N6C(=O)OC[C@H]6C(F)F)cn4CCO5)CC3)C2)C1 [Compound 87] | –
33 | > 1000 nM | 1120 nM | – | – | C=CC(=O)N1CCC(CN2CC3(CCN(c4ccc5c(c4)-c4nc(N6C(=O)OC[C@H]6C(F)F)cn4CCO5)CC3)C2)CC1 [Compound 24] | –
34 | – | – | < 50 nM | < 50 nM | CCC(C=C(C#N)C(=O)Nc1ccc(N2CC(N3CCN(c4ccc5c(c4)-c4nc(N6C(=O)OC[C@H]6C(F)F)cn4CCO5)CC3)C2)cc1)(CC)NC1COC1 [Compound 387] | –
35 | 128 nM | 14 nM | – | – | C=CC(=O)N1CCN(CCCC(=O)N2CCN(c3ccc4c(c3)-c3nc(N5C(=O)OC[C@H]5C(F)F)cn3CCO4)CC2)CC1 [Compound 15] | –
36 | – | – | < 50 nM | < 50 nM | CNC1(C=C(C#N)C(=O)Nc2ccc(N3CC(N4CCN(c5ccc6c(c5)-c5nc(N7C(=O)OC[C@H]7C(F)F)cn5CCO6)CC4)C3)cc2)CCC1 [Compound 392] | –
37 | – | – | 50 to 100 nM | < 50 nM | CC(C)=CC(=O)CCC(=O)N1CCN(Cc2ccc3c(c2)-c2nc(N4C(=O)OC[C@H]4C(F)F)cn2CCO3)CC1 [Compound 192] | –
38 | – | – | < 50 nM | < 50 nM | CN(C1COC1)C(C)(C)C=C(C#N)C(=O)Nc1ccc(N2CC(N3CCN(c4ccc5c(c4)-c4nc(N6C(=O)OC[C@H]6C(F)F)cn4CCO5)CC3)C2)cn1 [Compound 289] | –
39 | – | – | < 50 nM | < 50 nM | CC(C)(N)/C=C/C(=O)Nc1ccc(N2CC(N3CCN(c4ccc5c(c4)-c4nc(N6C(=O)OC[C@H]6C(F)F)cn4CCO5)CC3)C2)cc1 [Compound 276] | –
40 | – | – | < 50 nM | < 50 nM | CC(C)(C=C(C#N)C(=O)Nc1ccc(N2CC(N3CCN(c4ccc5c(c4)-c4nc(N6C(=O)OC[C@H]6C(F)F)cn4CCO5)CC3)C2)c(Cl)c1)NC1(C)COC1 [Compound 385] | –
41 | – | – | 50 to 100 nM | < 50 nM | C=CC(=O)Nc1ccc(C2CN(CC#Cc3ccc4c(c3)-c3nc(N5C(=O)OC[C@H]5C(F)F)cn3CCO4)C2)cc1 [Compound 201] | –
42 | – | – | < 50 nM | < 50 nM | CC(C)(C=C(C#N)C(=O)Nc1ccc(N2CC(N3CCN(c4ccc5c(c4)-c4nc(N6C(=O)OC[C@H]6C(F)F)cn4CCO5)CC3)C2)nn1)NC1COC1 [Compound 296] | –
43 | – | – | < 50 nM | < 50 nM | COCCNC(C)(C)C=C(C#N)C(=O)Nc1ccc(N2CC(N3CCN(c4ccc5c(c4)-c4nc(N6C(=O)OC[C@H]6C(F)F)cn4CCO5)CC3)C2)nc1 [Compound 250] | –
44 | 438 nM | 69 nM | – | – | C=CC(=O)Nc1ccc(N2CC[C@H](CN3CCN(c4ccc5c(c4)-c4nc(N6C(=O)OC[C@H]6C(F)F)cn4CCO5)CC3)C2)cc1 [Compound 20] | –
